Data on 2 compounds can be found in patent US11712434B2, “Compound having anti-cancer effect, and preparation method therefor and use thereof” (3D MEDICINES (BEIJING) CO., LTD., priority 2016, dated 2023).

Molecules are shown by their SMILES.

The subject of one series is NCI-H1648. Kind of series: Cell proliferation assay (Alamar Blue). In kind it is cell-based. Particulars: Homo sapiens, 144 h; NCI-H1648 tumor cell line; 6 days culture. The protocol:
(§1) 1. Instruments and Materials • Thermo 311 CO2 incubator; Haier biosafety cabinet; Molecular Devices microplate reader; Xiangyi brand L530 desktop low speed centrifuge; Olympus IX51 inverted fluorescence microscope, DMEM, RPMI 1640, MEM, DMEM/F12 1:1 medium, Fetal bovine serum, 0.25% trypsin solution, phosphate buffer (Thermo Fisher Shanghai Co., Ltd.); sigma dimethyl sulfoxide (DMSO), resazurin; 54 commercial tumor cell lines (including 26 liver cancer cell lines). Experimental drugs: compounds 1-12 and active drug Linifanib; chemotherapeutic drug Doxorubicin (HY-15142; Shanghai Qianyuan Biomedical Technology Co., Ltd.).
(§2) 2. Experimental Methods • 2.1 Cultivation of Different Cell Lines • 54 cell lines were cultured in a culture medium containing fetal bovine serum and placed in a 5% CO2 incubator at 37° C. for incubation. The cells were all grown in an adherent state, and the growth was observed under an inverted microscope, and subculture was performed when the cell confluence rate reached 80%-90%. The proportion and quantity of passage were determined by experimental needs. The ratio of subculture of this cell line was generally 1:2^˜1:3. • 2.2 Inhibition Effect on the Proliferation of Different Tumor Cell Lines • Cell test: 54 cell lines in logarithmic growth phase were inoculated in 96-well culture plates at 500^˜1×10^4/well (the optimal seeding density of each cell line was determined in pre-experiment), After incubating at 37° C. for 4 h in a 5% CO2 humidification incubator, added 10 μL of compounds 1-12 or Linifanib to each well, and tested 9 drug concentration gradients for each compound (diluted from the highest concentration of the test by 3.16 times). The solubility of each compound was different at a starting concentration of 100 or 30 μM, respectively. The QC reference compound Doxorubicin was added simultaneously to each cell line test, and the final drug concentrations were 10, 3.16, 1, 0.31, 0.1, 0.03, 0.01, 0.003, and 0.001 μM, respectively. In addition, a positive control group (100% inhibition) and a negative control group (0% inhibition) were set at the same time. The drug group was repeated for 2 wells per concentration, and the positive control group and the negative control group were repeated for 6 wells. After the culture was continued for 6 days in the incubator, AlamarBlue test operation was followed; • AlamarBlue test procedure: Incubated with 10 μL of AlamarBlue reagent per well for 1-4 h, shook for 1-2 min, MD microplate reader EX: 560 nm, EM: 590 nm wavelength to measure fluorescence, recorded the results, calculated the cell inhibition rate of the compound of the invention. Cell inhibition rate (%)=(A0% inhibition−A administration)/(A0% inhibition−A100% inhibition)×100%, and then using the method of nonlinear regression using GraphPad Prism 5.0 or MATILAB software (usually using four parameters) to graph and obtain a drug dose response curve to obtain an IC50 value of the compound of the present invention acting on a cancer cell line.

In a further series the test system is NCI-H1703. Kind of series: Cell proliferation assay (Alamar Blue). To be noted: Homo sapiens, 144 h; NCI-H1703 (lung cancer cells); 6 days culture. Format: cell-based. The protocol:
as §1, §2

A further series has as its system NCI-H2170. The series is described as follows: Cell proliferation assay (Alamar Blue). Format: cell-based. Particulars: Homo sapiens, 144 h; NCI-H2170 tumor cell line; 6 days culture. The protocol: as §1, §2
The subject of the next series is NCI-H526. The series is described as follows: Cell proliferation assay (Alamar Blue). Format: cell-based. Particulars: Homo sapiens, 144 h; NCI-H526 tumor cell line; 6 days culture. The method, then: as §1, §2
The subject of another series is NCI-H661. Kind of series: Cell proliferation assay (Alamar Blue). Format: cell-based. Particulars: Homo sapiens, 144 h; NCI-H661 tumor cell line; 6 days culture. The method, then: as §1, §2
The next series relates to NCI-H716. Kind of series: Cell proliferation assay (Alamar Blue). In kind it is cell-based. Particulars: Homo sapiens, 144 h; NCI-H716 tumor cell line; 6 days culture. The method, then:
as §1, §2

The test system of another series is liver cancer. To be noted: liver cancer patients, phase III; cited from earlier work.

As to `Cc1ccc(F)c(NC(=O)Nc2ccc(-c3cccc4[nH]nc(N)c34)cc2)c1` [Linifanib, reference compound], the IC50 was 7.17 µM in the series on NCI-H1648; 0.02 µM in the series on NCI-H1703; 4 µM in the series with NCI-H2170; 7.8 µM in the series with NCI-H526; 13.3 µM in the series with NCI-H661; 4.1 µM with NCI-H716. Further, in the series on liver cancer, the “toxicity and side effects” value is listed as “greater than Sorafenib”.

For `CNC(=O)c1cc(Oc2ccc(NC(=O)Nc3ccc(Cl)c(C(F)(F)F)c3)cc2)ccn1` [Sorafenib], in the series on liver cancer, the “ORR (overall response rate)” value is on record as 6.9% and the “TTP (time to progression)” value was 4.0 months.
